Like-named read-outs stand apart in the source and are kept apart here. Values belong to the molecule of their own block, whether it stands above or below them.
Assays:
[1] = cited from earlier work; for elimination half-life of 5-FU: Phase I
dogs = details: cited from earlier work
[2] = tested on: mice, monkeys, cats, and dogs; details: in vivo; cited from earlier work
tumor [3] = details: tumor-bearing rats and tissue culture; cited from earlier work
DPD [4] = biological target: T1, DPD (Homo sapiens, UniProt Q12882); details: eniluracil 0.74 mg/m^2 (about 1 mg total), for prolonged periods; cited from earlier work
T1 construct: eliminated greater than 90% of DPD in peripheral blood cells for prolonged periods; from tissue; host or cells: peripheral blood cells of cancer patients
T1 sequence (Q12882 4-1025): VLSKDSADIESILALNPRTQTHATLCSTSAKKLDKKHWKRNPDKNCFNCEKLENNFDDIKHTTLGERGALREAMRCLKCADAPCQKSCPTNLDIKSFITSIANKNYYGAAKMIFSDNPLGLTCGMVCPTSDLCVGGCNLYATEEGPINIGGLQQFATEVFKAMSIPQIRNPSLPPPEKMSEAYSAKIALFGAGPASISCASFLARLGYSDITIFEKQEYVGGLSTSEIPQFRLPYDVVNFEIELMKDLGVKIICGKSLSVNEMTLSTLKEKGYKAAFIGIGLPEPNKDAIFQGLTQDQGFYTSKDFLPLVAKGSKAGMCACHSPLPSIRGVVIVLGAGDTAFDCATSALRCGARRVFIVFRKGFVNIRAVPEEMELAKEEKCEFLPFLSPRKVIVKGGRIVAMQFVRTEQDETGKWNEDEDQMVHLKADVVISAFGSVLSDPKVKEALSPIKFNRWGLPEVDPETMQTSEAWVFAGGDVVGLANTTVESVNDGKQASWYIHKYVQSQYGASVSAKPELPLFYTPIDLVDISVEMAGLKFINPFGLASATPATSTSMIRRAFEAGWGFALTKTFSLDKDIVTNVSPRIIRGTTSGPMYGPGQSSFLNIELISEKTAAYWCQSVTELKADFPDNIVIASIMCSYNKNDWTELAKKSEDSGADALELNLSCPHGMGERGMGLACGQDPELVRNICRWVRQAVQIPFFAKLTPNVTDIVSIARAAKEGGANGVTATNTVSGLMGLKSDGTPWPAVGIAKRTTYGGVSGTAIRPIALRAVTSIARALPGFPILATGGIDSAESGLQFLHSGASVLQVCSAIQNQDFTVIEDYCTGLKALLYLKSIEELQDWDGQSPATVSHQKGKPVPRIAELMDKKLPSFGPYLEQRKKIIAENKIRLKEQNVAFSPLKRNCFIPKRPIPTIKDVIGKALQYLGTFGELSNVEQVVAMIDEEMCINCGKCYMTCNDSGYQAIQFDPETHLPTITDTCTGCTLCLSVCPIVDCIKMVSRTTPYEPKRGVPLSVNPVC

[5] = Calculated amount of eniluracil remaining in the body after 10.5 hours; design: species or system human; details: approximately three elimination half-lives
Experimental: The amounts of eniluracil shown in Table 1 below may be used achieve doses in the 16-20 mg/m^2 range. The calculated amount of eniluracil remaining in the body after 10.5 hours (approximately three elimination half-lives) is also presented. Thus, if the weekly and the 5-day dosing schedules employ doses of 5-FU ranging between about 15-50 mg/m^2, the ratio of eniluracil to 5-FU will always be less than about 1:6 when 5-FU is administered. For example, when the commonly used 25 mg/m^2 dose of 5-FU is administered 10.5 hours after eniluracil, the ratio of eniluracil to 5-FU will be about 1:10 or less.

tumors = details: eniluracil with 5-FU, laboratory animals bearing tumors; cited from earlier work
cancer patients [6] = details: cited from earlier work
[7] = humans; cited from earlier work
DPD [8] = biological target: T2, DPD (Rattus norvegicus, UniProt O89000); details: rats; spleen, intestinal mucosa, lung; cited from earlier work
T2 construct: from tissue; host or cells: rat brain, liver, spleen, intestinal mucosa, lung (in vivo dosing)
T2 sequence (O89000 1-1025): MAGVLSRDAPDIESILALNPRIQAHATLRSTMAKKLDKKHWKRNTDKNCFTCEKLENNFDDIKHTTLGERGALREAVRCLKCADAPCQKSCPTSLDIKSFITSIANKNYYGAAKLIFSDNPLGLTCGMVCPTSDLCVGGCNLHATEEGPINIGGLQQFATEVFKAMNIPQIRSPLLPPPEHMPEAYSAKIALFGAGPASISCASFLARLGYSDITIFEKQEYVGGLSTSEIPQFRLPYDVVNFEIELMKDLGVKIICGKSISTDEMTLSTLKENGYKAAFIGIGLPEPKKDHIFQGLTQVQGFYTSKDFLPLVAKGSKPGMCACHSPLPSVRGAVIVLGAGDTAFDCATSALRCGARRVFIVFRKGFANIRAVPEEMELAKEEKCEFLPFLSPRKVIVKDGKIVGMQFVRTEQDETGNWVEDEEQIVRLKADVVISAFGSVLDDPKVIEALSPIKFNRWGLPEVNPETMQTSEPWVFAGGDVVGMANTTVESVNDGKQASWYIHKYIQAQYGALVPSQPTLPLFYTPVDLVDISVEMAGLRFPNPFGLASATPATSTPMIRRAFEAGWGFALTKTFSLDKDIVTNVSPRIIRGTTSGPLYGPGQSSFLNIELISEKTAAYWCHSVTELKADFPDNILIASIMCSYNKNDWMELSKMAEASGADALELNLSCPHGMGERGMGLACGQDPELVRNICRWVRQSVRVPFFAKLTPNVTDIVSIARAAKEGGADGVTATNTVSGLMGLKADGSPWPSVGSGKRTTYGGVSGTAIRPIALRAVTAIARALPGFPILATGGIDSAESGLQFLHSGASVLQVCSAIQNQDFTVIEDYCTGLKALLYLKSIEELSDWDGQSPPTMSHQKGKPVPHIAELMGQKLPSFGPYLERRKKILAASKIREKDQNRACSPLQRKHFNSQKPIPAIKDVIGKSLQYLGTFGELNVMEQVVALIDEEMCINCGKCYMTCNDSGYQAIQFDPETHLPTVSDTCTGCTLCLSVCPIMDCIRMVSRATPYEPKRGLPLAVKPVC

cancer patients [9] = assay: Clinical trial: 5 mg eniluracil followed 12-24 hours later by 5-FU, neurotoxicity; type: in vivo, human; details: then 30-160 mg 5-FU 12-24 hours later, 41 patients
Experimental: Therefore, a clinical trial was initiated wherein cancer patients were administered a 5 mg dose of eniluracil followed by 5-FU at a 30-160 mg dose 12-24 hours later. Unexpectedly, the majority of the 41 patients undergoing this treatment experienced some form of mild to severe neurotoxicity, with the main neurological symptoms being ataxia (an unsteady gait), neuropathy, confusion, dizziness, and slurred speech.
Based on this important finding, a clinical trial was initiated wherein cancer patients were administered a 5 mg dose of eniluracil, which was believed to be sufficient to systemically eliminate DPD activity in the patients. 5-FU was then administered 12-24 hours later at a dose of 30-160 mg. Unexpectedly, however, the majority of the 41 patients undergoing this treatment experienced some form of mild to severe neurotoxicity, with the main neurological symptoms being ataxia (an unsteady gait), neuropathy, confusion, dizziness, and slurred speech.
A clinical trial was initiated based on the important mechanistic findings described in WO 2006/060697. More specifically, cancer patients were administered a 5 mg dose of eniluracil and 12-24 hours thereafter were administered a 30-160 mg dose of 5-FU. […]

patients = details: 20 mg eniluracil before 5-FU; 17 patients; cited from earlier work
tumor [10] = details: excess eniluracil present at the time 5-FU is administered; cited from earlier work
DPD [11] = biological target: T1, DPD; details: the two patients with neurotoxicity, 20 mg eniluracil (9.5 and 8.0 mg/m^2); cited from earlier work
[12] = tested on: patients with colorectal cancer; details: cited from earlier work

SMILES: O=c1[nH]cc(F)c(=O)[nH]1 [5-FU, 5-Fluorouracil]
elimination half-life of 5-FU ([1]; after one dose of eniluracil): 3.5 h | half-life of 5-FU ([1]; eniluracil 3.7 mg/m^2): 4.5 to 6.5 h | 5-FU elimination half-life ([1]; with eniluracil): 4.5 to 6.5 h | elimination half-life of 5-FU ([1]; without eniluracil): about 10 minutes | 5-FU elimination half-life ([1]; without eniluracil): 0.167 to 0.333 h | neurotoxicity (dogs; intravenous 5-FU alone, only low blood levels of 5-FU): induced seizures, muscle tremors, and ataxia

SMILES: NCC(F)C(=O)O (stereo not drawn) [F-Bal, α-fluoro-β-alanine]
neurotoxicity [2]: can cause neurotoxicity

SMILES: Nc1nc2c(c(=O)[nH]1)N(C=O)C(CNc1ccc(C(=O)N[C@@H](CCC(=O)O)C(=O)O)cc1)CN2 (stereo partly shown) [Leucovorin]
antitumor efficacy of eniluracil and 5-FU (tumor [3]): improve the antitumor efficacy

Estimated Amount of Eniluracil remaining 10.5 hr after dosing ([5]; eniluracil dose 25 mg): 3.1 mg | Estimated Amount of Eniluracil remaining 10.5 hr after dosing ([5]; eniluracil dose 30 mg): 3.8 mg | Estimated Amount of Eniluracil remaining 10.5 hr after dosing ([5]; eniluracil dose 40 mg): 5.0 mg | Estimated Amount of Eniluracil remaining 10.5 hr after dosing ([5]; eniluracil dose 50 mg): 6.3 mg
SMILES: C#Cc1c[nH]c(=O)[nH]c1=O [eniluracil, 5-ethynyluracil]
DPD eliminated in peripheral blood cells (DPD [4]): greater than 90% | antitumor efficacy of 5-FU (tumors): significantly improved | toxicity (cancer patients [6]; Phase I clinical trials in cancer patients): without causing toxicity | safety (cancer patients [6]; doses up to 50 mg per day for seven days): safe | elimination half-life for eniluracil [7]: about 3.5 hours | dose required to inactivate 50% of DPD in brain relative to liver and other non-nervous tissues (DPD [8]): approximately six-fold | patients experiencing some form of mild to severe neurotoxicity (cancer patients [9]): majority | neurotoxicity (dogs; dogs pretreated with eniluracil, high blood levels of 5-FU): without any neurotoxicity | incidence of neurotoxicity (patients): 12% | antitumor activity of 5-FU (tumor [10]): significantly diminished | DPD in peripheral blood cells (DPD [11]): completely inactivated | antitumor benefit versus standard regimen of 5-FU/leucovorin ([12]; 10 mg/m^2 eniluracil and 1 mg/m^2 5-FU every 12 hr for 28 days, North American trial): less antitumor benefit | total incidence of severe neurotoxicity ([12]; eniluracil about 11.5 mg/m^2 every 12 hours): 6%

From patent US8658618B2, “Methods for preventing or reducing neurotoxicity associated with administering DPD inhibitors in combination with 5-FU and 5-FU prodrugs” (Adherex Technologies, Inc., priority 2009, dated 2014)
